Data reported in patent US20220023302A1, “PDE9 INHIBITORS FOR TREATING SICKLE CELL DISEASE” (Imara Inc., priority 2019, published 2022).
In brackets after ≈: the same amount, converted by molar mass. Entries after “also recorded” stand apart in the source; their conditions may differ.

Experiments:
Townes mice = assay: Myeloid and neutrophil inflammatory markers in the lungs of Townes mice; format: in vivo, mouse
Excerpt: (§1) This appears to be accompanied by a Compound 1-mediated reduction in disease specific cell activation including 67% lower levels of myeloid derived myeloperoxidase (MPO) and 26% lower levels of neutrophil derived arginase in the lung (FIG. 1). […] This was quantified by real time monitoring of the green florescent patches in the microchannel, as neutrophils are labeled by a specific Alexa Fluor® 488-conjugated antibody before the perfusion step. […] Under these conditions, adhesion was reduced an average of 54% (p=0.03) (FIG. 2). Mechanistically, not willing to be bound by any theory, Compound 1 may target the stationary adhesion step of neutrophils as it lowered expression levels of key neutrophil integrins including CD11a [reduced 23% (p=0.002)], CD11b [reduced 39% (ns)) and CD18 [reduced 47% (p=0.03)) (FIG. 3).

Townes SCD model = assay: 28 day Townes SCD model, Compound 1 vs. HU (RBC/WBC); format: in vivo, mouse
Method: In one study, Compound 1 and therapeutic doses of HU (25 mg/kg and 50 mg/kg) were tested side-by-side in the 28 day Townes SCD model (oral daily). […] MPO is a monocyte inflammatory marker. Plasma nitrate is improved nitrate levels. Lower levels of plasma nitrate may contribute to hemolysis in SCD patients.

[1] = test system: SCD patient derived cell lines; assay: Study in SCD patient derived cell lines; format: cell-based, human
[2] = test system: In-vivo SCD: vaso occlusion; assay: In-vivo SCD: vaso occlusion (WBC)
SCD patient neutrophils = assay: In vitro adhesion assay mimicking blood flow (microchannels lined with activated HMEC-1); format: cell-based, human
Excerpt: as §1

Townes mouse model = assay: Plasma sE-Sel in the Townes mouse model; format: in vivo; details: Townes mice treated with Compound 1
Method: Endothelial E-selectin (E-Sel) slows leukocyte rolling, which is followed by stationary adhesion and transmigration of activated leukocytes. Plasma levels of sE-Sel, produced by the enzymatic cleavage of the extracellular domains of E-Sel, are increased in SCD patients and this may be mediated by its interaction with leukocytes. In the Townes mouse model, plasma sE-Sel is increased 144% ([…]) over levels seen in control mice ([…]).

[3] = test system: CD11a, CD11b and CD18 integrins on SCD patient neutrophils; assay: Integrin expression on SCD patient neutrophils; format: cell-based, human
Excerpt: as §1

C57B1/6J = assay: In-vivo cognition: C57B1/6J
Solubility in water = format: physicochemical
Method: Per taste testing results, bitterness could be detected for all these samples. […] At this level of solubility, masking the taste of Compound 1 in an oral solution is challenging. Even high level of sucralose was evaluated and taste of the oral solution remained bitter. […] Furthermore, strawberry flavor was chosen, because patients like its sweet taste and it has a good solubility in water. Orange juice or lime juice may be used to dilute the oral solution and to mask the bitter taste before administration.

SCD models = assay: Circulating levels of PMNs in SCD models; format: in vivo, murine
Excerpt: as §1, with “Recently several drugs targeting white cell binding to endothelial cells, have been advancing in clinical studies in patients. Compound 1 is able to increase expression of fetal hemoglobin in patient derived cells and murine models of SCD and reduce vessel occlusion in SCD murine models. In this Example, the ability of Compound 1 to reduce the adhesive properties of neutrophils from SCD patients and reduce sE-Selectin (sE-Sel) and markers of PMN activation in murine SCD models was studied. […] This appears” for “This appears”

[4] = test system: Erythroid cell lines (K562, UT-7); assay: In vitro studies in erythroid cell lines vs. HU; format: cell-based
Excerpt: The effects of Compound 1 is compared with HU in in vitro studies in erythroid cell lines (K562 and UT-7).

[5] = Stability of Compound 1 in solution as a function of pH; format: physicochemical
Excerpt: The pH of the solution affects the compound stability and solubility. […] In some embodiments, pharmaceutical composition has a pH from about 3.0 to about 7.0. In some embodiments, the pharmaceutical composition has a pH from about 3.0 to about 6.0, or from about 5.5 to about 6.5. In some embodiments, pH of the pharmaceutical composition is about 5.5, about 5.6, about 5.7, about 5.8, about 5.9, about 6.0, about 6.1, about 6.2, about 6.3, about 6.4, or about 6.5. In some embodiments, pH of the pharmaceutical composition is about 5.5. In some embodiments, pH of the pharmaceutical composition is about 6.0.
There is no obvious excipient that can mask its taste. Another major challenge was to optimize the excipients quantity. […] In some embodiments, a pharmaceutical composition of pH above 5.5 comprising Compound 1 is provided. […] Extensive formulation development and manufacturing process studies were carried out. Other challenges are the excipient compatibility and stability of the API in solution.

[6] = Nonclinical data on concomitant administration of HU with Compound 1; format: in vivo
Method: Results from Population B are intended to provide information on Compound 1 when administered concomitantly with HU, both of which increase HbF levels through alternative biochemical pathways that increase intracellular cGMP. Because there are no clinical data to support administration of Compound 1 concomitantly with HU, patients in Population B initiate Compound 1 dosing at the low dose (30 mg or 50 mg) used in Population A and only escalate to the 100 mg dose if the 50 mg dose has been safe and tolerated for 4 weeks.

[7] = Clinical safety and tolerability; format: in vivo, human
Method: In some embodiments, Compound 1, or a pharmaceutically acceptable salt, solvate, or hydrate thereof is administered to a patient, wherein Compound 1, or a pharmaceutically acceptable salt, solvate, or hydrate thereof, is administered once a day with food. […] The incidence and severity of the side effects, such as nausea, emesis and headache, can be reduced when Compound 1, or a pharmaceutically acceptable salt, solvate, or hydrate thereof, is taken with food.
Therefore, Population A is designed to explore the PD dose response in patients as well as the tolerability of the 200 mg dose level in sickle cell patients who have tolerated the 100 mg dose well.

C[C@@H]1CN(Cc2ncccn2)C[C@H]1c1cn2c(C3CCOCC3)ncc2c(=O)[nH]1 [Compound 1, 6-[(3S,4S)-4-methyl-1-(pyrimidin-2-ylmethyl)pyrrolidin-3-yl]-3-tetrahydropyran-4-yl-7H-imidazo[1,5-a]pyrazin-8-one]
myeloid and neutrophil inflammatory markers in the lungs (Townes mice; Townes mice, FIG. 1 legend): reduces
lower levels of myeloid derived myeloperoxidase (MPO) in the lung (Townes mice; lung, FIG. 1): 67%
lower levels of neutrophil derived arginase in the lung (Townes mice; lung, FIG. 1): 26%
key measures of RBC pathology (sickled RBCs; unconjugated bilirubin; % HbF cells; LDH activity) vs. HU (Townes SCD model; 28 day, oral daily, Compound 1 30 mg/kg, HU 25 and 50 mg/kg, FIG. 4): outperforms HU in a statistically significant manner
measures of WBC pathology vs. HU (Townes SCD model; 28 day, oral daily, Compound 1 30 mg/kg, HU 25 and 50 mg/kg, FIG. 5): outperforms HU in a statistically significant manner
RBC/WBC parameters vs. HU (Townes SCD model; Townes): Statistically better results than HU
F-cells % [1]: F-cells % increase
HbF [1]: increases in HbF
vaso occlusion (WBC) vs. HU [2]: Better results vs. HU; combo
reduction of neutrophil adhesion to activated HMEC-1 (SCD patient neutrophils; 30 min incubation with 30 μM, average, p=0.03, FIG. 2): 54%
adhesion of SCD patient neutrophils to endothelial cells (SCD patient neutrophils; added to whole blood samples prior to perfusion): reduced adhesions significantly and in a dose dependent manner; also recorded: reduces adhesion
plasma sE-Sel levels (Townes mouse model; control mice 57, Townes mice 139): 92 ng/mL
plasma sE-Sel elevation over control mice (Townes mouse model; untreated Townes 144%): 61%
expression of CD11a, CD11b and CD18 integrins ([3]; FIG. 3 legend): reduces expression
CD11b expression reduced ([3]; ns, FIG. 3): 39%
CD11a expression reduced ([3]; p=0.002, FIG. 3): 23%
CD18 expression reduced ([3]; p=0.03, FIG. 3): 47%
CNS activity (C57B1/6J): No CNS activity
solubility (Solubility in water): ~1000 mg/mL (≈ 2530 mM)
circulating levels of PMNs (SCD models): reduced
cGMP levels vs. HU [4]: increased cGMP levels compared with HU; also recorded: Increased cGMP levels vs. HU;
induction of HbF (RNA, protein, etc.) [4]: induction of HbF (RNA, protein, etc.)
stability at a lower pH [5]: unstable
increase of Compound 1 exposure by concomitant HU [6]: do not suggest
effect of food on adverse event profile (nausea, emesis, headache) ([7]; once a day with food): dramatically reduce the adverse event profile
safety and tolerability ([7]; once daily doses of 30, 50, 100, and 200 mg, nonclinical and healthy volunteer clinical data): safe and well tolerated
